Where a name gives a salt, the structure may show the parent alone.
Tests used:
Type in all cases: in vivo
Conditions in all cases: single patient
[1] = system: onset insomnia (non-chronic); assay: Treatment of patient with onset insomnia (non-chronic), follow up
Protocol: (§1) Administration of the compounds should take place within about one hour before bedtime. Again, the onset of the sedative effect will vary with the individual and the dosage prescribed.
The patient suffers from onset insomnia (non-chronic). At the time of consultation, they have normal affect with no depression, anxiety or substance overuse. They are prescribed mirtazapine 10 mg hs.
The patient suffers from onset insomnia (non-chronic). At the time of consultation, they have normal affect with no depression, anxiety or substance overuse. They are prescribed mirtazapine 7.5 mg hs.
The patient suffers from onset insomnia (non-chronic). At the time of consultation, they have normal affect with no depression, anxiety or substance overuse. They are prescribed mitazapine 5 mg hs.
The patient suffers from onset insomnia (non-chronic). At the time of consultation, they have normal affect with no depression, anxiety or substance overuse. They are prescribed mirtazapine 2 mg hs.
The patient suffers from onset insomnia (non-chronic). At the time of consultation, they have normal affect with no depression, anxiety or substance overuse. They are prescribed nortriptyline 10 mg hs.
The patient suffers from onset insomnia (non-chronic). At the time of consultation, they have normal affect with no depression, anxiety or substance overuse. They are prescribed nortriptyline 7.5 mg hs.
The patient suffers from onset insomnia (non-chronic). At the time of consultation, they have normal affect with no depression, anxiety or substance overuse. They are prescribed nortriptyline 5 mg hs.
The patient suffers from onset insomnia (non-chronic). At the time of consultation, they have normal affect with no depression, anxiety or substance overuse. They are prescribed nortriptyline 2 mg hs.

[2] = system: maintenance insomnia (chronic); assay: Treatment of patient with maintenance insomnia (chronic), follow up
Protocol: as §1
The patient suffers from maintenance insomnia (chronic). At the time of consultation, they have normal affect with no depression, anxiety or substance overuse. They are prescribed mirtazapine 10 mg hs.
The patient suffers from maintenance insomnia (chronic). At the time of consultation, they have normal affect with no depression, anxiety or substance overuse. They are prescribed mirtazapine 7.5 mg hs.
The patient suffers from maintenance insomnia (chronic). At the time of consultation, they have normal affect with no depression, anxiety or substance overuse. They are prescribed mirtazapine 5 mg hs.
The patient suffers from maintenance insomnia (chronic). At the time of consultation, they have normal affect with no depression, anxiety or substance overuse. They are prescribed mirtazapine 2 mg hs.
The patient suffers from maintenance insomnia (chronic). At the time of consultation, they have normal affect with no depression, anxiety or substance overuse. They are prescribed nortriptyline 10 mg hs.
The patient suffers from maintenance insomnia (chronic). At the time of consultation, they have normal affect with no depression, anxiety or substance overuse. They are prescribed nortriptyline 7.5 mg hs.
The patient suffers from maintenance insomnia (chronic). At the time of consultation, they have normal affect with no depression, anxiety or substance overuse. They are prescribed nortriptyline 5 mg hs.
The patient suffers from maintenance insomnia (chronic). At the time of consultation, they have normal affect with no depression, anxiety or substance overuse. They are prescribed nortriptyline 2 mg hs.

[3] = system: maintenance insomnia (non-chronic); assay: Treatment of patient with maintenance insomnia (non-chronic), follow up
Protocol: as §1
The patient suffers from maintenance insomnia (non-chronic) At the time of consultation, they have normal affect with no depression, anxiety or substance overuse. They are prescribed mirtazapine 10 mg hs.
The patient suffers from maintenance insomnia (non-chronic) At the time of consultation, they have normal affect with no depression, anxiety or substance overuse. They are prescribed mirtazapine 7.5 mg hs.
The patient suffers from maintenance insomnia (non-chronic) At the time of consultation, they have normal affect with no depression, anxiety or substance overuse. They are prescribed mirtazapine 5 mg hs.
The patient suffers from maintenance insomnia (non-chronic) At the time of consultation, they have normal affect with no depression, anxiety or substance overuse. They are prescribed mirtazapine 2 mg hs.
The patient suffers from maintenance insomnia (non-chronic). At the time of consultation, they have normal affect with no depression, anxiety or substance overuse. They are prescribed nortriptyline 10 mg hs.
The patient suffers from maintenance insomnia (non-chronic). At the time of consultation, they have normal affect with no depression, anxiety or substance overuse. They are prescribed nortriptyline 7.5 mg hs.
The patient suffers from maintenance insomnia (non-chronic) At the time of consultation, they have normal affect with no depression, anxiety or substance overuse. They are prescribed nortriptyline 5 mg hs.
The patient suffers from maintenance insomnia (non-chronic) At the time of consultation, they have normal affect with no depression, anxiety or substance overuse. They are prescribed nortriptyline 2 mg hs.

onset insomnia (chronic) = assay: Treatment of patient with onset insomnia (chronic), follow up
Protocol: as §1
The patient suffers from onset insomnia (chronic). At the time of consultation, they have normal affect with no depression, anxiety or substance overuse. They are prescribed mirtazapine 10 mg hs.
The patient suffers from onset insomnia (chronic). At the time of consultation, they have normal affect with no depression, anxiety or substance overuse. They are prescribed mirtazapine 7.5 mg hs.
The patient suffers from onset insomnia (chronic). At the time of consultation, they have normal affect with no depression, anxiety or substance overuse. They are prescribed mitazapine 5 mg hs.
The patient suffers from onset insomnia (chronic). At the time of consultation, they have normal affect with no depression, anxiety or substance overuse. They are prescribed mirtazapine 2 mg hs.
The patient suffers from onset insomnia (chronic). At the time of consultation, they have normal affect with no depression, anxiety or substance overuse. They are prescribed nortriptyline 10 mg hs.
The patient suffers from onset insomnia (chronic). At the time of consultation, they have normal affect with no depression, anxiety or substance overuse. They are prescribed nortriptyline 7.5 mg hs.
The patient suffers from onset insomnia (chronic). At the time of consultation, they have normal affect with no depression, anxiety or substance overuse. They are prescribed nortriptyline 5 mg hs.
The patient suffers from onset insomnia (chronic). At the time of consultation, they have normal affect with no depression, anxiety or substance overuse. They are prescribed nortriptyline 2 mg hs.

[4] = system: insomnia, possibly due to a desynchronization of circadian rhythms ("jet-lag"); assay: Treatment of business traveler with insomnia possibly due to desynchronization of circadian rhythms (jet-lag), follow up
Protocol: as §1
The patient, a business traveler, suffers from insomnia, possibly due to a desynchronization of circadian rhythms (“jet-lag”). At the time of consultation, they have normal affect with no depression, anxiety or substance overuse. They are prescribed mirtazapine 10 mg hs.
The patient, a business traveler, suffers from insomnia, possibly due to a desynchronization of circadian rhythms (“jet-lag”). At the time of consultation, they have normal affect with no depression, anxiety or substance overuse. They are prescribed mirtazapine 7.5 mg hs.
The patient, a business traveler, suffers from insomnia, possibly due to a desynchronization of circadian rhythms (“jet-lag”). At the time of consultation, they have normal affect with no depression, anxiety or substance overuse. They are prescribed mirtazapine 5 mg hs.
The patient, a business traveler, suffers from insomnia, possibly due to a desynchronization of circadian rhythms (“jet-lag”). At the time of consultation, they have normal affect with no depression, anxiety or substance overuse. They are prescribed mirtazapine 2 mg hs.
The patient, a business traveler, suffers from insomnia, possibly due to a desynchronization of circadian rhythms (“jet-lag”). At the time of consultation, they have normal affect with no depression, anxiety or substance overuse. They are prescribed nortriptyline 10 mg hs.
The patient, a business traveler, suffers from insomnia, possibly due to a desynchronization of circadian rhythms (“jet-lag”). At the time of consultation, they have normal affect with no depression, anxiety or substance overuse. They are prescribed nortriptyline 7.5 mg hs.
The patient, a business traveler, suffers from insomnia, possibly due to a desynchronization of circadian rhythms (“jet-lag”). At the time of consultation, they have normal affect with no depression, anxiety or substance overuse. They are prescribed nortriptyline 5 mg hs.
The patient, a business traveler, suffers from insomnia, possibly due to a desynchronization of circadian rhythms (“jet-lag”). At the time of consultation, they have normal affect with no depression, anxiety or substance overuse. They are prescribed nortriptyline 2 mg hs.

| Compound | relief of onset insomnia at follow up ([1]; 2 mg hs) | relief of onset insomnia at follow up ([1]; 5 mg hs) | relief of onset insomnia at follow up ([1]; 7.5 mg hs) | relief of onset insomnia at follow up ([1]; 10 mg hs) | relief of insomnia at follow up ([2]; 2 mg hs) | relief of insomnia at follow up ([2]; 5 mg hs) | relief of insomnia at follow up ([2]; 7.5 mg hs) | relief of insomnia at follow up ([2]; 10 mg hs) | relief of insomnia at follow up ([3]; 2 mg hs) | relief of insomnia at follow up ([3]; 5 mg hs) | relief of insomnia at follow up ([3]; 7.5 mg hs) | relief of insomnia at follow up ([3]; 10 mg hs) | relief of onset insomnia at follow up (onset insomnia (chronic); 2 mg hs) | relief of onset insomnia at follow up (onset insomnia (chronic); 5 mg hs) | relief of onset insomnia at follow up (onset insomnia (chronic); 7.5 mg hs) | relief of onset insomnia at follow up (onset insomnia (chronic); 10 mg hs) | relief of insomnia at follow up ([4]; 2 mg hs) | relief of insomnia at follow up ([4]; 5 mg hs) | relief of insomnia at follow up ([4]; 7.5 mg hs) | relief of insomnia at follow up ([4]; 10 mg hs) |
| --- | --- | --- | --- | --- | --- | --- | --- | --- | --- | --- | --- | --- | --- | --- | --- | --- | --- | --- | --- | --- |
| CN1CCN2c3ncccc3Cc3ccccc3C2C1 (stereo not shown) [mirtazapine, 1,2,3,4,10,14b-hexahydro-2-methylpyrazino [2,1-a]pyrido [2,3-c]benzazepine] | relieves the onset insomnia and has them sleeping well | relieves the onset insomnia and has them sleeping well | relieves the onset insomnia and has them sleeping well | relieves the onset insomnia and has their sleeping well | relieves the insomnia and has them sleeping well | relieves the insomnia and has them sleeping well | relieves the insomnia and has them sleeping well | relieves the insomnia and has their sleeping well | relieves the insomnia and has them sleeping well | relieves the insomnia and has them sleeping well | relieves the insomnia and has them sleeping well | relieves the insomnia and has their sleeping well | relieves the onset insomnia and has them sleeping well | relieves the onset insomnia and has them sleeping well | relieves the onset insomnia and has them sleeping well | relieves the onset insomnia and has their sleeping well | relieves the insomnia and has them sleeping well | relieves the insomnia and has them sleeping well | relieves the insomnia and has them sleeping well | relieves the insomnia and has their sleeping well |
| CNCCC=C1c2ccccc2CCc2ccccc21 [nortriptyline, 1 propanamine,3-(10,11-dihydro-5H-dibenzo[a,d]cyclohepten-5-ylidene)-N-methyl-, hydrochloride] | relieves the onset insomnia and has their sleeping well | relieves the onset insomnia and has them sleeping well | relieves the onset insomnia and has them sleeping well | relieves the onset insomnia and has their sleeping well | relieves the insomnia and has their sleeping well | relieves the insomnia and has them sleeping well | relieves the insomnia and has them sleeping well | relieves the insomnia and has their sleeping well | relieves the insomnia and has their sleeping well | relieves the insomnia and has them sleeping well | relieves the insomnia and has them sleeping well | relieves the insomnia and has their sleeping well | relieves the onset insomnia and has their sleeping well | relieves the onset insomnia and has them sleeping well | relieves the onset insomnia and has them sleeping well | relieves the onset insomnia and has their sleeping well | relieves the insomnia and has their sleeping well | relieves the insomnia and has them sleeping well | relieves the insomnia and has them sleeping well | relieves the insomnia and has their sleeping well |

— patent US6344487B1, “Treatment of insomnia” (priority 2000, dated 2002)
